Source: patent US20220167645A1, “METHODS OF IMPROVING FISH FEED CONVERSION RATE AND SURVIVAL” (AQUINOVO LTD., priority 2019, published 2022)
Several values for one entry are separate records, joined by “and”; a condition that tells them apart may be missing. Equal entries are not always repeated. Numbered stars: 1 amine (or outer) side, 2 acyl side, 3 side chain; on linkers, the order of the positions; unused ones are H or OH. Square brackets hold non-standard residues; d marks the D form. Suc = O=C(CCC(=O)[*:2])[*:1]; NMeV = CN[C@H](C(=O)O)C(C)C; βAla = NCCC(=O)O

Legend:
Tilapia fish [1] = assay: Experiment #1: tilapia fed AN6-coated feed in two phases (growth, biomass, mortality, FCR); assay type: in vivo
Experimental: MeM (powder, manufactured by Bern Aqua), Nanolis P1, P2 (pellet sizes of 0.8-1 mm, 1-1.5 mm, respectively, manufactured by Ocialis) and Tilaphi 1, 2 & 3 (pellet sizes of 1-1.5 mm, 2 mm, 3-5.5 mm, respectively, manufactured by Ocialis) were used as basic regular feed. The basic feed was coated according to the following general procedure: 9 ml or 3 ml of Tris-HCl solution (50 mM, pH=8.8) were diluted to 60 ml with distilled H2O. For AN6-containing feed preparation, desired amounts of AN6 peptide (a TK antagonist having the sequence Succ-Asp-Ser-D-Trp—N(Me)Val-βAla-Leu-Met-NH2, SEQ ID NO. 6) were dissolved in the Tris-HCl solution. Then, each of the various solutions was mixed with 3 Kg of basic feed pellets using an electric mixer. The peptide-feed mixtures where then dried either in oven at 40° C. for 24 hours or in drying drum for few hours to form coated pellets. The total amount of each feed was 3 Kg.
Tilapia fish (n=3600) have been raised from age 10 to 106 days post-hatch (dph) in indoor tanks kept under artificial lightening (12 h light; 12 h dark), and then transferred to cages in ponds for 160 days (total 8-9 months). The fish were fed to apparent satiation 2-4 times a day, for about 90 days (10-106 dph, Phase 1), either with regular feed (Feed A, Group A, n=600 in 3 repeats) or with feed coated with AN6 peptide solution in a ratio of 10 mg AN6/Kg feed (10 ppm, Feed C, Group B, n=600 in 3 repeats). In the second phase, fish in group B were fed for 50 days (207-257 dph, Phase 2) with feed coated with AN6 peptide solution, in a ratio of 30 mg AN6/Kg feed (30 ppm, Feed D, Group B). Between days 107 and 206 the fish received control feed (feed A).
During the experiment period, the average fish weight was measured, and the daily growth rate was calculated by dividing the average weight gained in each measuring period by the number of days since the last measurement. […] This effect was also evident in the daily growth rate (FIG. 1, experiment #1). The relatively low growth rate measured in the initial phase of this experiment probably stemmed from high stocking density in tanks system in the initial period (Phase 1, Table 2, until day 106 post-hatch). This growth restriction was fully compensated in the larger cages in ponds (178 dph) where stocking density was much lower (from 106 dph, <10 Kg fish/m3).
During the experiments described above, dead fish were removed from tanks before each feeding, and then counted and weighed. Dead fish were not replaced after the beginning of the experiment. In the cage systems, in which dead fish are undetectable, actual mortality was estimated by the difference between initial and final count.
During the experiment described in example 2 (experiment #1), the fish were exposed to high stocking densities in indoor tanks (13-130 kg/m^3, 83-106 dph, Table 2, FIG. 7). High stocking density is known as a major fish stressor resulting, inter alia, in chronic increase in Cortisol levels, reduced growth, changes in behavior and inhibition of immune performance. Although mortality in these tanks was not high, a significant increase in mortality was observed following fish transfer to the pond (FIG. 7, 17.5%±2.4 mortality, x±SE).
In order to determine the efficiency of feed conversion into fish substance in experiments (#1, #2, #3), FCR values which reflect the amount of feed needed to grow a kilogram fish, were calculated for each period and for the entire fish growth period. In order to determine the amount of consumed feed, the amount of feed provided was measured daily for each tank and the leftovers were collected, weighted and subtracted from the total amount of feed. Dead fish were removed every day before each feeding and then counted and weighed for accurate calculation of feed intake and FCR. […]

Tilapia fish [2] = assay type: in vivo
From the text: At the end of each of the experiments described in examples 2, 3 and 5 (#1, #2, #3), a sample of fish from each treatment group was sacrificed and dissected for measurements of internal parts as indicated in Table 9.

[3] = AN6 half-life in blood and residual peptide in muscle and plasma; conditions: in vivo
Tilapia fish [4] = assay: Experiment #1: tilapia fed AN6-coated feed in two phases (growth, biomass, mortality, FCR); assay type: in vivo; conditions: second phase, adult fish 195-263 dph; 50 days of 30 mg AN6/Kg feed; compared to control
[5] = 10 mg AN6/Kg feed 10-106 dph, first 200 days of experiment, vs control
[6] = 10 ppm AN6, experiments 2 & 3, vs control

## Succ-Asp-Ser- D-Trp -N(Me)Val-βAla-Leu-Met-NH2 (Suc-DS[dW][NMeV][βAla]LM-NH2; SMILES CSCC[C@H](NC(=O)[C@H](CC(C)C)NC(=O)CCNC(=O)[C@H](C(C)C)N(C)C(=O)[C@@H](Cc1c[nH]c2ccccc12)NC(=O)[C@H](CO)NC(=O)[C@H](CC(=O)O)NC(=O)CCC(=O)O)C(N)=O) [AN6]
Tilapia fish [1]; [5]
  daily growth rate: no differences
  fish average weight: no differences
Tilapia fish [1]; 10 and 30 mg AN6/Kg feed (experiment #1)
  FCR and growth performance: both improved FCR and growth performance
Tilapia fish [1]; AN6 treatment group (control 6%)
  number of fish in the upper 6.5th decile: 12%
Tilapia fish [1]; AN6 treatment group (control 9%)
  number of fish in the lower 2th decile: 7%
Tilapia fish [1]; after high stocking density in tanks, control 17.5%±2.4, FIG. 7
  mortality following fish transfer to the pond (x±SE): 10.5%±1.8
Tilapia fish [1]; experiment #1, FIG. 3A, vs control
  increased total biomass: +18%
Tilapia fish [1]; in the pond, FIG. 7
  reduction of fish mortality as compared to the control groups: 8.5%
Tilapia fish [1]; second phase of the experiment (FIG. 2A)
  weight gained normalized according to the initial body weight, difference compared to the control group: 6% and 9%
Tilapia fish [2]; [6]
  female fillet ratio: +3.38%
  male fillet ratio: +5.6%
Tilapia fish [2]; in vivo
  gonad size and histology: No significant effect
  kidney, liver and fat weight and rates: no effect
[3]
  cleared from blood: ~4.5 min
  half-life time in blood: very short
  peptide residual in muscle and blood after treatment: no peptide residual is detected
  residual peptide in muscle and plasma following treatment: non residual peptide was observed
Tilapia fish [4]
  increase in average fish weight: +6.84%
  increase in average weight gained: +13%
